Source: patent US10028931B2, “Synergistic compositions for treating microbial infections” (UNIVERSITY OF ROCHESTER, priority 2014, dated 2018)
pIC50: −log10 of the molar value. Converted amounts (≈) assume the structure as drawn.

What was measured:
[1] = test system: Staphylococcus aureus strain UAMS-1; experiment: Antimicrobial susceptibility testing (MIC, broth microdilution); format: cell-based; conditions: Staphylococcus aureus, UAMS1, 18 h, S. aureus UAMS-1, Mueller Hinton broth, 37° C., read-out: MIC
Protocol: The RNase P inhibitors described herein were tested for antimicrobial activity toward Staphylococcus aureus strain UAMS-1. Individual wells of a 96-well microtiter plate were inoculated with ˜1×10^5 colony-forming units (CFU) of the indicated organism, containing two-fold increasing concentrations (from 0 to 256 μg mL^−1) of the indicated antibiotic or putative RnpA inhibitor, and incubated at 37° C. for 18 hours in Mueller Hinton broth. The MIC was defined as the lowest concentration of antibiotic in which there was no visible bacterial growth in the wells. Minimum bactericidal concentration testing was performed by enumerating the bacterial cells in each of the wells containing treatments at and above the MIC.

RnpA = biological target: T1, RnpA (Staphylococcus aureus, UniProt P0A0H5); experiment: RnpA mRNA degradation activity assay; format: biochemical; conditions: RnpA mRNA degradation, gel densitometry; read-out: RnpA IC50
T1 sequence (P0A0H5 1-117): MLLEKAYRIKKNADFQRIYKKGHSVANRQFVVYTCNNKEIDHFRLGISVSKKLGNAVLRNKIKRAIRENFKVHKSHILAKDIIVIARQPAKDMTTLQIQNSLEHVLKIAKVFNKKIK
Protocol: The RNase P inhibitors described herein were tested for activity toward RnpA mRNA degradation activity. Either 1 μg of total S. aureus RNA or 1 pmol of in vitro synthesized spa mRNA was incubated with 20 pmol RnpA at 37° C. for 15 to 30 min in a reaction buffer (50 mM Tris-HCl pH 8.0, 2 mM NaCl, 2 mM MgCl2) in the absence or presence of the indicated compound. Reactions were stopped by adding an equal volume of 2×RNA loading dye (95% formamide, 0.025% SDS, 0.025% bromophenol blue, 0.025% xylene cyanol FF, 0.5 mM EDTA), run on a denaturing 1.0% agarose-0.66 M formaldehyde gel and stained with ethidium bromide. RNA substrates and corresponding degradation products were visualized using a FluorChem 5500 system (Alpha Innotech; San Leandro, Calif.). The inhibitory effects of the test compounds were measured using Image J densitometry software (National Institutes of Health; Bethesda, Md.) to quantify the signal intensity of the RNA band(s) in the negative control (RNA alone), positive control (RnpA+RNA+DMSO), and experimental samples (RnpA+RNA+test compound). The percent enzyme inhibition of test compounds was calculated using the following equation: Percent inhibition=[(experimental signal-positive control)/(negative control signal-positive control signal)]*100.

[2] = biological target: T2, S. aureus RNase P (RnpA+rnpB) (Staphylococcus aureus, UniProt P0A0H5); experiment: RNase P activity assay (precursor tRNA processing); format: biochemical; conditions: ptRNATyr processing, gel densitometry; read-out: RNase P IC50
T2 sequence (P0A0H5 1-117): T1 sequence (P0A0H5 1-117)
Protocol: The RNase P inhibitors described herein were tested for activity toward RNase P. S. aureus RNase P activity assays were performed in low salt buffer (50 mM Tris-HCl pH 8.0, 5 mM MgCl2) or in high salt buffer (50 mM Tris-HCl pH 8.0, 100 mM MgCl2, 800 mM NH4Cl). For all reactions, ptRNATyr, tRNATyr, or rnpB RNA species were first denatured by heating to 95° C. for 3 minutes, and then slowly cooling the mixtures to room temperature. RNase P was reconstituted by mixing an equal molar ratio of RnpB and RnpA for 15 min at 37° C. Precursor tRNA processing reactions (20 μL) were performed by mixing 1.25 pmol RNase P (RnpA+rnpB), RnpA, or rnpB with an equal volume of 2× low salt buffer or 2× high salt buffer and 10 pmol ptRNATyr. Mixtures were incubated for 15 min at 37° C. Reactions were stopped by adding 20 μL 2×RNA loading dye (95% formamide, 0.025% SDS, 0.025% bromophenol blue, 0.025% xylene cyanol FF, 0.5 mM EDTA), and 30 μL of each sample was electrophoresed in a 7 M urea/8% polyacrylamide gel and was then stained with ethidium bromide (0.5 μg/ml). Where indicated, reactions were repeated in the presence of the indicated amount of putative RnpA inhibitors or dimethyl sulfoxide (DMSO). A FluorChem 5500 imaging system was used to visualize the RNA, and the relative abundance of the mature tRNATyr band in the positive control (RNase P+DMSO) or in samples containing test compounds was measured using Image J densitometry software (NIH). The percent RNase P activity was then calculated using the following calculation: (test compound tRNATyr signal/positive control tRNATyr signal)*100.

S. aureus strain UAMS-1 = experiment: Fractional Inhibitory Concentration testing with mupirocin; format: cell-based; conditions: combined with mupirocin, S. aureus UAMS-1, Mueller Hinton broth, 18 hours; synergistic FIC≤0.5
Protocol: The RNase P inhibitors described herein were tested for Fractional Inhibitory Concentration (FIC) in the presence of mupirocin. FIC testing was performed to determine the combined effects of mupirocin and the RnpA inhibitors as described herein. Individual wells of a 96-well microtiter plate were inoculated with 1×10^5 CFU of S. aureus strain UAMS-1 in a Mueller Hinton broth. Each row of the plate contained increasing concentrations of RNPA1000 or RNPA2000 (two-fold increments; 0, 0.004, 0.008, 0.016, 0.03, 0.06, 0.125, 0.25, 0.5, 1, 2, or 4×MIC), whereas each column contained increasing concentrations of the indicated antibiotic (two-fold increments; 0, 0.06, 0.125, 0.25, 0.5, 1, 2, or 4×MIC). Plates were incubated for 18 hours at 37° C., and growth was detected by the unaided eye. The FIC was determined using the following formula: (MIC of Drug A in Combination/MIC of Drug A Alone)+(MIC of Drug B in Combination/MIC of Drug B Alone)=FIC. A synergistic interaction was defined as an FIC value≤0.5, no interaction as an FIC of 0.5-4, or an antagonistic interaction FIC>4.

Row | Structure (SMILES) | MIC [1] | pIC50 (RnpA) | pIC50 [2] | FIC with Mupirocin (S. aureus strain UAMS-1)
1 | CC(C)c1ccc(OCC(=O)NNC(=S)NC(=O)C2CC2)cc1 [ST5523314] | 8 µg/mL (≈ 23.9 µM) | < 3.30 | < 3.30 | 1
2 | Cc1ccc(OCC(=O)NNC(=S)NC(=O)c2ccc(Br)o2)c(C)c1 [ST5523326] | 8 µg/mL (≈ 18.8 µM) | 3.42 | 4.12 | 0.375
3 | Cc1cccc(C)c1OCC(=O)NNC(=S)NC(=O)c1ccc(-c2ccccc2)cc1 [ST5523335] | 128 µg/mL (≈ 295 µM) | < 3.30 | 4.00 | 0.375
4 | O=C(COc1ccc(-c2ccccc2)cc1)NNC(=S)NC(=O)c1ccc(Br)o1 [ST5524465] | 32 µg/mL (≈ 67.5 µM) | 4.35 | 4.19 | 0.625
5 | CC(C)(C)c1ccc(OCC(=O)NNC(=S)NC(=O)c2ccco2)c(Br)c1 [ST5524527] | 8 µg/mL (≈ 17.6 µM) | < 3.30 | 3.70 | 0.625
6 | O=C(COc1ccc(Cl)cc1Br)NNC(=S)NC(=O)c1ccco1 [ST5525958] | 32 µg/mL (≈ 74 µM) | < 3.30 | 3.90 | 0.75
7 | CCOc1ccc(C(=O)NC(=S)NNC(=O)COc2cc(C)ccc2C(C)C)cc1 [ST5528173] | 32 µg/mL (≈ 74.5 µM) | < 3.30 | 3.64 | 1
8 | CCCOc1ccccc1C(=O)NNC(=S)NC(=O)c1ccco1 [ST5528488] | 4 µg/mL (≈ 11.5 µM) | 3.37 | 4.02 | 0.5
9 | CC(C)c1ccccc1OCC(=O)NNC(=S)NC(=O)c1ccccc1OCCOc1ccccc1 [ST5528880] | > 128 µg/mL | < 3.30 | 3.42 | 0.56
10 | Cc1ccc(C(C)C)c(OCC(=O)NNC(=S)NC(=O)c2ccccc2OCCOc2ccccc2)c1 [ST5528960] | > 128 µg/mL | 4.40 | < 3.30 | 0.56
11 | CC(Oc1ccc2ccccc2c1)C(=O)NNC(=S)NC(=O)c1ccco1 (centres unmarked) [ST5682782] | > 128 µg/mL | < 3.30 | < 3.30 | 0.25
12 | CCCc1ccc(OCC(=O)NNC(=S)NC(=O)c2ccco2)cc1 [ST5682783] | > 128 µg/mL | < 3.30 | 4.19 | 0.31
13 | CCCOc1ccc(C(=O)NNC(=S)NC(=O)c2ccco2)cc1 [ST5684191] | 8 µg/mL (≈ 23 µM) | < 3.30 | < 3.30 | 0.375
14 | O=C(NNC(=S)NC(=O)c1ccco1)c1ccc(F)cc1 [ST5703018] | 64 µg/mL (≈ 208 µM) | < 3.30 | < 3.30 | 0.625
